Laboratory results taken from patent publication US20030181449A1 (priority 2003, published 2003).
Several values for one entry are separate records, joined by “and”; a condition that tells them apart may be missing. Equal values may be shown once. Read-outs that look alike come from different tables or passages of the source.

Tests used:
[1] = molecular target: T1, NMDA receptor glycine site (Rattus norvegicus, UniProt P35439); test: Test A: Inhibition of binding of [3H]-MDL105,519 to brain membranes
T1 construct: The rat brain membranes used in the experiments were obtained from Analytical Biological Services Inc; tissue Analytical Biological Services Inc; host or cells: rat brain membranes (cerebral cortex and hippocampus, male Sprague Dawley rats)
Excerpt: Test A: Inhibition of Binding of [^3H]-MDL105,519:
Binding of compounds to the NMDA receptor glycine site may be assessed by measuring the ability of test compounds to inhibit the binding of tritiated MDL105,519 to brain membranes bearing the receptor.
Briefly, fresh brain tissue including cerebral cortex and hippocampus from male Sprague Dawley rats was homogenized in 0.32 M sucrose and centrifuged at low speed to separate cellular membranes from other cellular components. The membranes were then washed 3 times using deionized water, followed by treatment with 0.04% Triton X-100. Finally, membranes were washed six times in 50 mM Tris citrate buffer, pH 7.4, and frozen at −80° C. until use.
[^3H]MDL105,519 (72 Ci/mmol) was purchased from Amersham. Cold MDL105,519 was purchased from Sigma/RBI. […] On the day of the experiment, brain membranes were thawed at room temperature and suspended in 50 mM tris acetate buffer, pH 7.4 (“TAB”). Seventy-five micro grams per milliliter protein (by using the BioRad dye) were used for competition binding. The experiments were carried out using 96-well plates. […] Non specific binding was determined by using 100 μM of unlabeled MDL105,519. […] After incubation, unbound [^3H]MDL105,519 was removed by filtration onto GF/B Unifilter plates using a Packard harvester. Filters were washed four times with ice cold TAB (total of 1.2 mL buffer). The plates were dried overnight at room temperature and bound radioactivity was measured on a Packard TopCount after the addition of 45 μL per well of the MICROSCINT O.
Human Brain Membranes: Human brain membranes were obtained from Analytical Biological Services Inc., and assays were performed as described for rat membranes.
Data analysis: Data was analyzed using a Microsoft Excel spreadsheet and GraphPad Prizm software and potency of compounds is expressed as the Ki (nM).

[2] = tested on: formalin-induced nociceptive behaviors in rats; test: Test B: Formalin test (formalin-induced paw flinches); format: in vivo, rat; conditions: dose 200 (unit not given), dosed three hours prior to formalin
Excerpt: The Formalin test is an assay that assesses the capacity of a compound to inhibit formalin-induced nociceptive behaviors in rats (D. Dubuisson, et al., Pain 4, 161-174 (1977); H. Wheeler-Aceto et al., Psychopharmacology 104, 3544 (1991); T. J. Coderre, et al., Pain 54, 43-50 (1993)). In the test, two distinctive phases of formalin-induced behaviors are observed. A first phase response, caused by acute nociception to the noxious chemical (formalin) injected into the paw, occurs between zero and five minutes. A quiescent period of 5 to 15 min post injection follows. After the quiescent period a second phase response, caused by sensitization of the central neurons in the dorsal horn, occurs after 15 minutes and lasts up to 60 minutes. Sensitization of the central neurons in the spine augments a noxious afferent input and causes a stronger pain barrage to be transmitted to the brain. Therefore, inhibition of the second phase response indicates a central mechanism of drug action.
The procedure for the formalin test is as follows: male rats are placed in a plexiglass chamber and observed for 30-45 min. to observe their baseline activity. Animals are either pretreated with vehicle or with different doses of a test compound. Animals are dosed with vehicle or test compound three hours prior to injection of 0.05 mL of sterile 1% formalin under the dorsal skin of a hind paw. The number of paw flinches (responses) during the first phase (0-5 min.) and the second phase (20-35 min.) are scored and recorded. Flinch response is compared with the mean score of a saline control group and calculated as percentage inhibition. The ED50 is the dose of compound which produces 50% inhibition of nociceptive response in the first or second phase response. First phase responses may be inhibited by compounds that act peripherally and by compounds that act centrally. Second phase response are inhibited by centrally active compounds.
Student's t-test was used for statistical analysis to determine the significance of compound effects. Data are reported as a dose that yielded a % inhibition of a response.

[3] = tested on: CCI rats (thermal hyperalgesia); test: Test C: Neuropathic pain model (Chronic Constriction Injury), thermal hyperalgesia, paw withdrawal latency; format: in vivo, rat; conditions: oral; for Test C (% Inh.): percent decrease in hyperalgesia: at the MED; for Test C MED (minimum effective dose): three times daily for 5 days
Excerpt: Test C: Neuropathic Pain Model (Chronic Constriction Injury):
The anti-hyperalgesic properties of a compound may be tested with the Chronic Constriction Injury (“CCI”) model. The test is a model for neuropathic pain associated with nerve injuries that can arise directly from trauma and compression, or indirectly from a wide range of diseases such as infection, cancer, metabolic conditions, toxins, nutritional deficiencies, immunological dysfunction, and musculoskeletal changes. In the model a unilateral peripheral hyperalgesia is produced in rats by nerve ligation (G. J. Bennett, et al., Pain 33, 87-107 (1988)).
Procedurally, Sprague-Dawley rats (250-350 g) are anesthetized with sodium pentobarbital and the common sciatic nerve is exposed at the level of the mid thigh by blunt dissection through the biceps femoris. A section of nerve (about 7 mm), proximal to the sciatic trifucation, is freed of tissue and ligated at four positions with chromic gut suture. The suture is tied with about 1 mm spacing between ligatures. The incision is closed in layers and the animals are allowed to recuperate. Thermal hyperalgesia is measured using a paw-withdrawal test (K. Hargreaves, et al., Pain 32, 77-88 (1988)). To perform the test, animals are habituated on an elevated glass floor. A radiant heat source is aimed at the mid-plantar hindpaw (sciatic nerve territory) through the glass floor with a 20 second cut-off used to prevent injury to the skin. The latencies for the withdrawal reflex in both hind paws are recorded.
Injured paws with ligated nerves show shorter paw withdrawal latencies compared to the uninjured or sham operated paws. Responses to test compounds are evaluated at different times after oral administration to determine the onset and duration of compound effect. When performing the test, groups of CCI rats receive either vehicle or the test compound orally three times daily for 5 days. Paw withdrawal latencies are measured each day 10 min before and 2 or 3 hr. after the first daily dose. Compound efficacy is expressed as mean percentage decrease of hyperalgesia compared to that of vehicle-treated animals, calculated as follows:
(Mean of vehicle group−Mean of compound group)×100/(Mean of vehicle group).
Data analysis was performed by the multiple means comparison test (Dunnett's test) and results are expressed and compound potencies are expressed as the MED (minimum effective dose), in mg/Kg/day, that yields a percent (%) decrease in hyperalgesia that is statistically significant.

[4] = inhibition of 1.2 nM [3H]MDL105,519 binding, brain membranes (rat or human not given)

Ki [1, 4] | Structure (SMILES) | also measured
65 nM | CON(C)C(=O)c1cccc(Cn2nc(O)c3[nH]c4cc(Cl)ccc4c(=O)c3c2=O)c1 | –
– | O=C(NCc1ccco1)c1ccc(Cn2nc(O)c3[nH]c4cc(Cl)ccc4c(=O)c3c2=O)cc1 [Ex. 3, 7-Chloro-4hydroxy-2-(4-(furan-2-ylmethyl)aminocarbonyl)-benzyl-1,2,5,10-tetrahydropyridazino[4,5-b]quinoline-1,10-dione] | Ki [1]: 153 nM; Test B First phase Dose (% Inh.): % inhibition of nociceptive response ([2]; first phase (0-5 min)): 200 (33%); Test B Second phase Dose (% Inh.): % inhibition of nociceptive response ([2]; second phase (20-35 min)): 200 (−18%); Test C (% Inh.): percent decrease in hyperalgesia [3]: 96%; Test C MED (minimum effective dose) [3]: 30 mg/kg/day
117 nM | O=c1c2ccc(Cl)cc2[nH]c2c(O)nn(Cc3ccc4nc[nH]c4c3)c(=O)c12 [Ex. 5, 7-Chloro-4-hydroxy-2-(benzimidazol-5-ylmethyl)-1,2,5,10-tetrahydropyridazino[4,5-b]quinoline-1,10-dione methanesulfonate] | –
67.9 nM and 62.5 nM | Cc1cc(Cn2nc(O)c3[nH]c4cc(Cl)ccc4c(=O)c3c2=O)ccc1O [Ex. 6, 7-Chloro-4-hydroxy-2-(4-hydroxy-3-methyl-benzyl)-1,2,5,10-tetrahydropyridazino[4,5-b]quinoline-1,10-dione] | –
111 nM | CSc1ccccc1Cn1nc(O)c2nc3cc(Cl)ccc3c(O)c2c1=O [Ex. 7, 7-Chloro-4,10-dihydroxy-2-[(2-methylthio)phenylmethyl]-2-hydropyridazino[4,5-b]quinoline-1-one] | melting point: 290 to 292 °C
35 nM | COC(=O)c1c(OC)cc(Cn2nc(O)c3[nH]c4cc(Cl)ccc4c(=O)c3c2=O)cc1OC [Ex. 8, 7-Chloro-2-(4-(2,6-dimethoxy)methylbenzoate)4hydroxy-1,2,5,10-tetrahydropyridazino[4,5-b]quinoline-1,10-dione] | –
91 nM | CC(C)OC(=O)c1ccc(Cn2nc(O)c3[nH]c4cc(Cl)ccc4c(=O)c3c2=O)cc1 [Ex. 9, 7-Chloro-4-hydroxy-2-(4-iso-propoxycarbonylbenzyl)-1,2,5,10-tetrahydropyridazino[4,5-b]quinoline-1,10-dione] | –
– | CN(C)C(=O)Nc1ccc(Cn2nc(O)c3[nH]c4cc(Cl)ccc4c(=O)c3c2=O)cc1 [Ex. 11, 7-chlorohydroxy-2-(4-dimethylaminocarboxamide)phenylmethyl-1,2,5,10-tetrahydropyridazino[4,5-b]quinoline-1,10-dione] | Test C (% Inh.): percent decrease in hyperalgesia [3]: 80%; Test C MED (minimum effective dose) [3]: 15 mg/kg/day
67.5 nM | O=C(Nc1ccc(Cn2nc(O)c3[nH]c4cc(Cl)ccc4c(=O)c3c2=O)cc1)N1CCCC1 [Ex. 13, 7-chloro-4-hydroxy-2-(4pyrrolidinylcarboxamide)phenylmethyl-1,2,5,10-tetrahydropyridazino[4,5-b]quinoline-1,10-dione] | –
15.6 nM | O=C(Nc1cccc(Cn2nc(O)c3[nH]c4cc(Cl)ccc4c(=O)c3c2=O)c1)N1CCCC1 [Ex. 15, 7-Chloro-4-hydroxy-2-(3-pyrrolidinylcarboxamide)phenylmethyl-1,2,5,10-tetrahydropyridazino[4,5-b]quinoline-1,10-dione] | –
79.9 nM | O=C(Nc1ccccc1)Nc1cccc(Cn2nc(O)c3[nH]c4cc(Cl)ccc4c(=O)c3c2=O)c1 [Ex. 18, 7-chloro-4-hydroxy-2-(3-phenylaminocarboxamide)phenylmethyl-1,2,5,10-tetrahydropyridazino[4,5-b]quinoline-1,10-dione] | –
33.3 nM | O=C(Nc1cccc(Cn2nc(O)c3[nH]c4cc(Cl)ccc4c(=O)c3c2=O)c1)NC1CCCCC1 [Ex. 19, 7-chloro-4-hydroxy-2-(3-cyclohexylaminocarboxamide)phenylmethyl-1,2,5,10-tetrahydropyridazino[4,5-b]quinoline-1,10-dione] | –
199 nM | O=c1c2ccc(Cl)cc2[nH]c2c(O)nn(Cc3ccc(I)cc3)c(=O)c12 [Ex. 20, 7-Chloro-4-hydroxy-2-(4-iodophenylmethyl)-1,2,5,10-tetrahydropyridazino[4,5-b]quinoline-1,10-dione] | –
1 nM | O=c1c2ccc(Cl)cc2[nH]c2c(O)nn(Cc3ccc(C#CCO)cc3)c(=O)c12 [Ex. 21] | –
141 nM | COCCNC(=O)c1ccc(Cn2nc(O)c3[nH]c4cc(Cl)ccc4c(=O)c3c2=O)cc1 [Ex. 23] | –
126 nM | CNC(=O)c1cccc(Cn2nc(O)c3[nH]c4cc(Cl)ccc4c(=O)c3c2=O)c1 [Ex. 25, 7-Chloro-4-hydroxy-2-[3-(methylaminocarbonyl)-benzyl]-1,2,5,10-tetrahydropyridazino[4,5-b]quinoline-1,10-dione] | –
191 nM | COCCN(CCOC)C(=O)c1cccc(Cn2nc(O)c3[nH]c4cc(Cl)ccc4c(=O)c3c2=O)c1 [Ex. 27, 7-Chloro-4-hydroxy-2-[3-(di-(2-methoxy)ethyl)aminocarbonylbenzyl]-1,2,5,10-tetrahydropyridazino[4,5-b]quinoline-1,10-dione] | –
88 nM | O=C(c1ccc(Cn2nc(O)c3[nH]c4cc(Cl)ccc4c(=O)c3c2=O)cc1)N1CCOCC1 [Ex. 29, 7-Chloro-4-hydroxy-2-[4-(morpholine-4-carbonyl)-benzyl]-1,2,5,10-tetrahydropyridazino[4,5-b]quinoline-1,10-dione] | –
98 nM | CC(=O)Nc1ccc(Cn2nc(O)c3[nH]c4cc(Cl)ccc4c(=O)c3c2=O)cc1 [Ex. 30, 7-Chloro-4-hydroxy-2-[4-(methylcarbonyl-amino)-benzyl]-1,2,5,10-tetrahydropyridazino[4,5-b]quinoline-1,10-dione] | –

Structure (SMILES) | Ki [1, 4] | also measured
CC(C)NC(=O)c1ccc(Cn2nc(O)c3[nH]c4cc(Cl)ccc4c(=O)c3c2=O)cc1 [EX. 31, 7-chloro-4-hydroxy-2-(4-isopropylcarboxamide)phenylmethyl-1,2,5,10-tetrahydropyridazino[4,5-b]quinoline-1,10-dione] | 41 nM | –
